Laboratory results from publication PMC9671962 (Communications Biology, 2022).
“And” between values parts separate entries of the source, which are not always exact repeats. Equal entries are not always repeated.

Key:
[1] = test system: NB-SDx; assay: Pre-clinical efficacy study, NB-SDx PDX; format: in vivo; settings: single mouse
Experimental: (§1) Patient demographics and genetic characteristics are listed in (Supplementary Tables 1, 2)[17]. The maximum tolerated dose (MTD) was determined to be 36 MBq/kg administered by intra-peritoneal injection twice weekly for a total of 4 dose fractions and this fractionated regimen was used in all studies (Supplementary Fig. 1)[18],[19]. […] Nine of 11 PDX models were MYCN amplified (Fig. 1b), which is a hallmark of high-risk neuroblastoma. Tumor response was measured as the maximum percent decrease in tumor volume after treatment and event-free survival (EFS) was measured by the area over the curve method with tumor events pre-defined by tumor growth exceeding 2 cm[3],[18].
The use of 2 mice per arm was based on the previously reported statistical analysis. PDX tumors were implanted into the right flank of 5 to 6-weeks old female mice weighing about 20–25 grams. […] Two additional dose levels of 12, and 24 MBq/kg/fraction were assessed in a subset of models and were administered as stated above. In two models treated at the 24 MBq/kg/fraction dose level we re-challenged tumor response at the time of tumor progression with an additional 4 dose fractions at 24 MBq/kg/fraction given twice weekly. Doses were prepared in 500 µL total volume. An equal volume of saline was used for the vehicle group. Tumors were measured using a digital caliper at the initiation of the study and two times per week during the treatment period. Tumor volumes were calculated as volume = ([…]∗0.5236)/1000. Weights were obtained twice weekly and mice were monitored daily for signs of toxicity. […] Tumor response was assessed by best response defined as greatest reduction in tumor volume following the last dose and is presented as percent change in tumor volume. Event-free survival was determined by area over the curve method that calculates the time to tumor event, which was defined as tumors reaching or exceeding a size ≥ 2 cm^3.
Animal studies were performed in female mice due to the lack of sex-related differences for [^211At]PTT tolerability from initial dose response studies performed in female and male mice. Female mice were chosen due to their underlying behavior towards other study subjects that reduced nonstudy-related causes for decreased wellness. Pre-clinical efficacy studies were performed through “single mouse testing” to more closely recapitulate a clinical trial. […] Number size for treatment groups was determined by model tumor growth reproducibility, which was previously shown to have less than 5% normal variation with at least two animals. […] Event free survival was measured by area over the curve method to quantify time to event, which was set as tumor growth exceeding 2 cm[3],[19]. […]

[2] = test system: NB-1691x; assay: Pre-clinical efficacy study, NB-1691x PDX; format: in vivo; settings: 36 MBq/kg/fraction x 4 fractions, single mouse
Experimental: as §1
The use of 2 mice per arm was based on the previously reported statistical analysis. […] Two additional dose levels of 12, and 24 MBq/kg/fraction were assessed in a subset of models and were administered as stated above. […] Tumors were measured using a digital caliper at the initiation of the study and two times per week during the treatment period. Tumor volumes were calculated as volume = ((diameter^1/2 + diameter^2/2)^3∗0.5236)/1000. Weights were obtained twice weekly and mice were monitored daily for signs of toxicity. […] Tumor response was assessed by best response defined as greatest reduction in tumor volume following the last dose and is presented as percent change in tumor volume. […]

[3] = 24 MBq/kg/fraction x 4 fractions
[4] = 36 MBq/kg/fraction x 4 fractions

SMILES: O=C1NCCn2c(-c3ccc([211At])cc3)nc3cccc1c32 [[^211At]PTT, Astatine-211-parthanatine]
- EFS by AOC method [1, 3]: 44.1 days and 46.5 days and 44.0589 days and 46.4742 days
- Tumor response (% growth from study initiation at ~ 200 mm3) [1, 3]: -80.9524% and -80%
- EFS by AOC method [1, 4]: 59.408 days and 51.1551 days
- Tumor response (% growth from study initiation at ~ 200 mm3) [1, 4]: -96.9697% and -85.7143%
- EFS by AOC method [2]: 50.9799 days and 78.469 days
- Tumor response (% growth from study initiation at ~ 200 mm3) [2]: -100%
